Test results published in patent US20090042726A1, “Novel Herbicides” (SYNGENTA LIMITED, priority 2005, published 2009).

Tested on: Monocotyledonous and dicotyledonous test plants
Test: Herbicidal action, application pre-emergence (Example B1)
Type: in vivo
Parameters: key: 10=total damage to plant; 0=no damage to plant
Conditions: 1000 g/ha, evaluated after 9 or 13 days; for AGSTE herbicidal action (damage score 0-10): Agrostis-tenius; for AMARE herbicidal action (damage score 0-10): Amaranthus retroflexus; for DIGSA herbicidal action (damage score 0-10): Digitaria sanguinalis; for POATR herbicidal action (damage score 0-10): Poa trivialis; for SETIT herbicidal action (damage score 0-10): Setaria italica
Description: Monocotyledonous and dicotyledonous test plants were sown in sterilised standard soil in seed trays each having 96 cells. After one day (pre-emergence) under controlled conditions in a climatic chamber (cultivation at 23/17° C., day/night; 13 hours light; 50-60% humidity; after application at 24/19° C., day/night), the plants were treated with an aqueous spray solution of 1000 mg/l of the active ingredient used (including 10% DMSO as solvent). The plants were grown on in the climatic chamber until the test was evaluated (10=total damage to plant, 0=no damage to plant) after 9 or 13 days.

SMILES | AGSTE herbicidal action (damage score 0-10) | AMARE herbicidal action (damage score 0-10) | DIGSA herbicidal action (damage score 0-10) | POATR herbicidal action (damage score 0-10) | SETIT herbicidal action (damage score 0-10)
Cn1nc(C(F)(F)F)c(C[S+]([O-])C2=NOC(C)(C)C2Br)c1OCC(F)(F)F (mixture of isomers) [2.02] | 10 | 7 | 10 | 5 | 7
Cn1nc(C(F)(F)F)c(C[S+]([O-])C2=NOC(C)(C)C2F)c1OCC(F)(F)F (mixture of isomers) [2.08] | 10 | 10 | 10 | 10 | 10
Cn1nc(C(F)(F)F)c(C[S+]([O-])C2=NOC(C)(C)C2Cl)c1OC(F)F (mixture of isomers) [2.17] | 10 | 6 | 10 | 10 | 9
Cn1nc(C(F)(F)F)c(C[S+]([O-])C2=NOC(C)(C)C2F)c1OC(F)F (mixture of isomers) [2.23] | 10 | 10 | 10 | 10 | 10
Cn1cc(C[S+]([O-])C2=NOC(C)(C)C2F)c(C(F)(F)F)n1 (mixture of isomers) [2.33] | 10 | 6 | 9 | 9 | 9
CC(Oc1c(CS(=O)(=O)C2=NOC(C)(C)C2F)c(C(F)(F)F)nn1C)C(F)(F)F (mixture of isomers) [2.37] | 10 | 8 | 9 | 10 | 9
CCn1cc(C[S+]([O-])C2=NOC(C)(C)C2F)c(C(F)(F)F)n1 (mixture of isomers) [2.46] | 10 | 10 | 9 | 10 | 
C#CCn1cc(C[S+]([O-])C2=NOC(C)(C)C2F)c(C(F)(F)F)n1 (mixture of isomers) [2.49] | 10 | 10 | 10 | 10 | 
C=CCn1cc(C[S+]([O-])C2=NOC(C)(C)C2F)c(C(F)(F)F)n1 (mixture of isomers) [2.52] | 10 | 9 | 9 | 9 | 
COCCOc1c(C[S+]([O-])C2=NOC(C)(C)C2F)c(C(F)(F)F)nn1C (mixture of isomers) [2.58] | 10 | 10 | 10 | 10 | 
Cc1nc(C(F)(F)F)ccc1C[S+]([O-])C1=NOC(C)(C)C1F (mixture of isomers) [3.02] | 10 | 7 | 9 | 10 | 8
CC1(C)ON=C([S+]([O-])Cc2cccnc2Cl)C1F (mixture of isomers) [3.05] | 9 | 10 | 8 | 10 | 
Cn1cc(C(F)(F)F)c(C[S+]([O-])C2=NOC(C)(C)C2F)n1 (mixture of isomers) [4.02] | 10 | 9 | 9 | 10 | 9
Cn1nc(C(F)(F)F)cc1C[S+]([O-])C1=NOC(C)(C)C1F (mixture of isomers) [6.02] | 10 | 10 | 9 | 10 | 
Cn1nc(C(F)(F)F)cc1C[S+]([O-])C1=NOC(C)(C)C1F (mixture of isomers) [6.03] | 10 | 8 | 9 | 10 | 
Cn1nc(OC(F)F)cc1C[S+]([O-])C1=NOC(C)(C)C1F (mixture of isomers) [6.09] | 10 | 10 | 9 | 9 | 

SMILES | AGSTE herbicidal action (damage score 0-10) | AMARE herbicidal action (damage score 0-10) | DIGSA herbicidal action (damage score 0-10) | POATR herbicidal action (damage score 0-10) | SETIT herbicidal action (damage score 0-10)
COc1cc(C[S+]([O-])C2=NOC(C)(C)C2F)n(C)n1 (mixture of isomers) [6.12] | 10 | 10 | 10 | 10 | 
CC1(C)ON=C([S+]([O-])Cc2nn(C3CCCC3)nc2C(F)(F)F)C1F (mixture of isomers) [7.13] | 10 | 4 | 9 | 8 | 
COCCn1nc(C[S+]([O-])C2=NOC(C)(C)C2F)c(C(F)(F)F)n1 (mixture of isomers) [7.19] | 6 | 10 | 9 | 10 | 
Cn1ncc(C[S+]([O-])C2=NOC(C)(C)C2F)n1 (mixture of isomers) [7.22] | 9 | 0 | 8 | 9 | 
CCc1nn(C)nc1C[S+]([O-])C1=NOC(C)(C)C1F (mixture of isomers) [7.32] | 10 | 7 | 9 | 9 | 
CCn1ncc(C[S+]([O-])C2=NOC(C)(C)C2F)n1 (mixture of isomers) [7.35] | 10 | 8 | 9 | 9 | 
Cc1nn(C(C)C)nc1C[S+]([O-])C1=NOC(C)(C)C1F (mixture of isomers) [7.38] | 10 | 6 | 7 | 7 | 
Cn1nnc(Br)c1C[S+]([O-])C1=NOC(C)(C)C1F (mixture of isomers) [11.02] | 10 | 5 | 9 | 10 | 
CC(c1c(C(F)(F)F)nn(C)c1OCC(F)(F)F)S(=O)(=O)C1=NOC(C)(C)C1F (mixture of isomers) [Compound No. 2.12] | 10 | 6 | 9 | 10 | 9
CC(c1c(C(F)(F)F)nn(C)c1OC(F)F)S(=O)(=O)C1=NOC(C)(C)C1F (mixture of isomers) [Compound No. 2.27] | 10 | 10 | 10 | 10 | 10
CC1(C)ON=C([S+]([O-])Cc2c(F)cccc2F)C1F (single isomer, unassigned) [1.15] | 10 | 9 | 9 | 10 | 9
CC1(C)ON=C([S+]([O-])Cc2c(F)cccc2F)C1F (single isomer, unassigned) [1.16] | 10 | 8 | 10 | 10 | 6
Cn1nc(C(F)(F)F)c(C[S+]([O-])C2=NOC(C)(C)C2F)c1OCC(F)(F)F (single isomer, unassigned) [2.09] | 10 | 9 | 9 | 10 | 10
Cn1nc(C(F)(F)F)c(C[S+]([O-])C2=NOC(C)(C)C2F)c1OCC(F)(F)F (single isomer, unassigned) [2.10] | 10 | 8 | 10 | 10 | 9
Cn1nc(C(F)(F)F)c(C[S+]([O-])C2=NOC(C)(C)C2F)c1OC(F)F (single isomer, unassigned) [2.24] | 10 | 10 | 10 | 10 | 10
